# From US11214803B2, “Modulators of YAP1 expression” (Ionis Pharmaceuticals, Inc., priority 2019, dated 2022)
# Strand notation (5' to 3'): a small letter for the sugar, then the base; units joined by * are phosphorothioate-linked, units joined directly phosphodiester-linked; [ ] holds rarer units or linkages, { } end groups; capitals alone tell only the bases. k = constrained ethyl (cEt); [5mC] = 5-methylcytosine; d = 2'-deoxy (DNA)
# System: Yap1 mRNA
# Experiment: Antisense inhibition of human Yap1 in A-431 cells by cEt gapmers, single dose (Example 2, RTS4814)
# Type: cell-based
# Protocol: Modified oligonucleotides were designed to target a Yap1 nucleic acid and were tested for their effect on Yap1 mRNA level in vitro. The modified oligonucleotides were tested in a series of experiments that had similar culture conditions. Cultured A-431 cells at a density of 5,000 cells per well were treated using free uptake with 2,000 nM of modified oligonucleotide. After a treatment period of approximately 48 hours, RNA was isolated from the cells and Yap1 mRNA levels were measured by quantitative real-time RTPCR. Human primer probe set RTS4814 was used to measure mRNA levels. Yap1 mRNA levels were normalized to total RNA content, as measured by RIBOGREEN®. Results are presented in the tables below as percent control of the amount of Yap1 mRNA relative to untreated control cells (% UTC). The modified oligonucleotides with percent control values marked with an asterisk (*) target the amplicon region of the primer probe set. Additional assays may be used to measure the potency and efficacy of the modified oligonucleotides targeting the amplicon region.
# The newly designed modified oligonucleotides in the Tables below were designed as 3-10-3 cEt gapmers. The gapmers are 16 nucleosides in length, wherein the central gap segment comprises of ten 2′-deoxynucleosides and is flanked by wing segments on the 5′ direction and the 3′ direction comprising three nucleosides each. Each nucleoside in the 5′ wing segment and each nucleoside in the 3′ wing segment has a cEt sugar modification. The internucleoside linkages throughout each gapmer are phosphorothioate (P═S) linkages. All cytosine residues throughout each gapmer are 5-methylcytosines.
# “Start site” indicates the 5′-most nucleoside to which the gapmer is targeted in the human gene sequence. “Stop site” indicates the 3′-most nucleoside to which the gapmer is targeted human gene sequence. […] Activity ofthe modified oligonucleotide may be defined in a different experiment.
# [1] = A-431 cells, 5,000 cells per well, free uptake, 2,000 nM modified oligonucleotide, approx. 48 hours, RTS4814, normalized to RIBOGREEN, Table 4, asterisk (*) = targets amplicon region of primer probe set
# [2] = Yap1 mRNA as percent of untreated control, A-431 cells, 3-10-3 cEt gapmers targeting SEQ ID NO.: 1, and 2, Table 30
# [3] = Table 22, Yap1 mRNA as percent of untreated control, 3-10-3 cEt gapmers, single dose
# [4] = Table 5, A-431 cells, 5,000 cells per well, free uptake, 2,000 nM modified oligonucleotide, approx. 48 hours, RTS4814, normalized to RIBOGREEN, Yap1 mRNA relative to untreated control cells
# [5] = Table 20, Yap1 mRNA, percent of untreated control, 3-10-3 cEt gapmers targeting SEQ ID NO.: 1 and 2
# [6] = Yap1 mRNA as percent of untreated control, A-431 cells, 3-10-3 cEt gapmers targeting SEQ ID NO.: 1, and 2, Table 31
# [7] = Table 18, A-431 cells, 5,000 cells per well, free uptake, 2,000 nM modified oligonucleotide, approx. 48 hours, RTS4814, normalized to RIBOGREEN, Yap1 mRNA as percent of untreated control
# [8] = Table 21, Yap1 mRNA, percent of untreated control, 3-10-3 cEt gapmers targeting SEQ ID NO.: 1 and 2
# [9] = Table 24, Yap1 mRNA as percent of untreated control, 3-10-3 cEt gapmers targeting SEQ ID NO.: 1, and 2
# [10] = Table 32, Yap1 mRNA, percent of untreated control, 3-10-3 cEt gapmers targeting SEQ ID NO.: 1, and 2
# [11] = Table 23, Yap1 mRNA as percent of untreated control, 3-10-3 cEt gapmers, single dose
substance,measurement,setting,value
716538 (antisense kT*k[5mC]*kT*dG*dA*dA*dA*d[5mC]*dT*d[5mC]*d[5mC]*dA*dA*kA*kT*k[5mC]) [Compound 716538],YAP1 (% UTC),[1],77 % UTC
716385 (kT*kT*k[5mC]*d[5mC]*d[5mC]*dA*dT*d[5mC]*d[5mC]*dA*dT*d[5mC]*dA*kG*kG*kA; antisense) [Compound 716385],YAP1 (% UTC),[1],87 % UTC
1075920 (antisense kA*kA*kA*dG*dA*dA*dA*dG*d[5mC]*dT*dG*d[5mC]*dG*k[5mC]*kA*k[5mC]) [compound 1075920],YAP1 (% UTC),[2],108 % UTC
716456 (kA*k[5mC]*k[5mC]*dA*d[5mC]*dA*d[5mC]*dT*dA*dT*dT*dA*dT*kA*kA*kA; antisense) [Compound 716456],YAP1 (% UTC),"Table 6, A-431 cells, 5,000 cells per well, free uptake, 2,000 nM modified oligonucleotide, approx. 48 hours, RTS4814, normalized to RIBOGREEN, Yap1 mRNA relative to untreated control cells",96 % UTC
1075848 (kG*kA*kT*dT*dA*d[5mC]*dA*dA*dT*dG*dG*dG*d[5mC]*kA*kG*kT; antisense) [Compound 1075848],YAP1 (% UTC),[3],9 % UTC
716410 (kG*kT*kA*dT*d[5mC]*dA*d[5mC]*d[5mC]*dT*dG*dT*dA*dT*k[5mC]*k[5mC]*kA; antisense) [Compound 716410],YAP1 (% UTC),[4],52 % UTC
1076262 (kA*kG*kA*d[5mC]*dA*dA*dT*dA*dG*dT*d[5mC]*dT*dG*kG*kG*k[5mC]; antisense) [Compound 1076262],YAP1 (% UTC),[5],41 % UTC
1076177 (k[5mC]*kT*kT*dT*dA*dT*dT*dT*d[5mC]*d[5mC]*d[5mC]*dA*d[5mC]*k[5mC]*k[5mC]*kG; antisense) [compound 1076177],YAP1 (% UTC),[6],37 % UTC
716506 (antisense kT*k[5mC]*kT*dG*d[5mC]*dA*dG*dT*dG*dG*d[5mC]*d[5mC]*dA*kT*kT*kT) [Compound 716506],YAP1 (% UTC),[4],62 % UTC
1076292 (kT*kA*kT*dT*dA*dT*dT*dG*dA*dG*dT*dT*dA*kT*k[5mC]*k[5mC]; antisense) [Compound 1076292],YAP1 (% UTC),[7],27 % UTC
1075303 (kT*kA*kA*dA*d[5mC]*dT*dA*dA*dT*d[5mC]*dT*dA*d[5mC]*kA*kA*k[5mC]; antisense) [Compound 1075303],YAP1 (% UTC),[8],100 % UTC
1075237 (antisense kG*k[5mC]*kT*dG*dA*dA*dA*dA*dT*dG*d[5mC]*dT*dA*kA*k[5mC]*kT) [Compound 1075237],YAP1 (% UTC),"Table 19, A-431 cells, 5,000 cells per well, free uptake, 2,000 nM modified oligonucleotide, approx. 48 hours, RTS4814, normalized to RIBOGREEN, Yap1 mRNA as percent of untreated control",105 % UTC
1075473 (kA*kG*kT*dT*dA*dT*dA*dA*d[5mC]*dT*dG*dT*dA*k[5mC]*kT*kA; antisense) [compound 1075473],YAP1 (% UTC),[6],89 % UTC
1074250 (antisense k[5mC]*kT*kG*dA*dT*d[5mC]*dG*dA*dT*dG*dT*dG*dA*kT*kT*kT) [Compound 1074250],YAP1 (% UTC),[9],6 % UTC
1075986 (kG*kA*kA*dT*dA*dT*d[5mC]*dG*dA*dA*dA*dA*dG*k[5mC]*kA*kA; antisense) [compound 1075986],YAP1 (% UTC),[10],26 % UTC
1074852 (antisense kA*kA*kT*dT*dG*dT*dT*dA*dT*dG*dA*dT*dA*kG*kG*k[5mC]) [Compound 1074852],YAP1 (% UTC),[7],4 % UTC
1074864 (k[5mC]*kA*kT*dA*dT*dG*dA*dG*d[5mC]*dA*dT*dG*d[5mC]*kT*k[5mC]*kT; antisense) [compound 1074864],YAP1 (% UTC),[2],47 % UTC
1075921 (antisense kG*kA*kA*dA*dG*dA*dA*dA*dG*d[5mC]*dT*dG*d[5mC]*kG*k[5mC]*kA) [compound 1075921],YAP1 (% UTC),[6],93 % UTC
1075687 (kT*kA*kA*dA*d[5mC]*dG*dA*dG*dT*dA*dA*dT*dG*kA*k[5mC]*kT; antisense) [Compound 1075687],YAP1 (% UTC),[8],23 % UTC
1075881 (kG*kA*kT*dT*dA*dA*d[5mC]*dT*dA*d[5mC]*dA*d[5mC]*d[5mC]*kA*k[5mC]*kG; antisense) [Compound 1075881],YAP1 (% UTC),[11],23 % UTC
1076006 (kT*kT*kT*dA*dA*dA*d[5mC]*d[5mC]*dT*dG*dA*dG*dA*k[5mC]*kT*k[5mC]; antisense) [Compound 1076006],YAP1 (% UTC),[5],41 % UTC
1076489 (antisense k[5mC]*kA*kA*dA*dA*dT*dA*dG*dG*dT*dG*dA*dG*kT*k[5mC]*kA) [Compound 1076489],YAP1 (% UTC),[11],2 % UTC
1076266 (kA*kT*kT*dA*dT*dT*dA*d[5mC]*d[5mC]*d[5mC]*dA*dA*dT*kA*kA*k[5mC]; antisense) [Compound 1076266],YAP1 (% UTC),[9],72 % UTC
1075472 (kG*kA*kT*dT*dA*dT*dA*dG*dT*dT*dA*dA*dA*k[5mC]*kA*kG; antisense) [compound 1075472],YAP1 (% UTC),[2],92 % UTC
1074664 (antisense kG*k[5mC]*kA*dT*dT*d[5mC]*dT*dA*dG*dG*dT*dA*dG*kA*kA*kT) [Compound 1074664],YAP1 (% UTC),[3],49 % UTC
1075364 (k[5mC]*kG*kA*dA*dA*dA*dT*dA*dG*dT*dT*d[5mC]*dT*k[5mC]*kA*kA; antisense) [Compound 1075364],YAP1 (% UTC),[7],59 % UTC
1075911 (kT*kG*kA*d[5mC]*dA*dA*dA*dA*d[5mC]*dA*dG*dG*d[5mC]*kA*k[5mC]*k[5mC]; antisense) [Compound 1075911],YAP1 (% UTC),[8],41 % UTC
1075078 (antisense k[5mC]*kA*kA*d[5mC]*dT*dA*dT*dA*d[5mC]*dG*dG*dT*d[5mC]*k[5mC]*kA*kT) [Compound 1075078],YAP1 (% UTC),[5],3 % UTC
1074344 (antisense kT*kG*kA*dG*dA*d[5mC]*dA*dT*d[5mC]*d[5mC]*d[5mC]*dG*dG*kG*kA*kG) [Compound 1074344],YAP1 (% UTC),[3],99 % UTC
1076562 (kT*kA*kT*dT*dA*d[5mC]*dA*dG*dA*dG*dG*dG*dT*kA*kG*k[5mC]; antisense) [compound 1076562],YAP1 (% UTC),[10],17 % UTC
1074898 (antisense kA*kA*k[5mC]*dT*dT*dT*dT*dG*dG*dG*d[5mC]*dA*dA*kA*kG*kT) [compound 1074898],YAP1 (% UTC),[10],101 % UTC
1075656 (kA*kA*kA*dA*d[5mC]*dG*dG*dT*dT*dT*dT*dT*d[5mC]*kT*kA*kA; antisense) [Compound 1075656],YAP1 (% UTC),[3],103 % UTC
1075402 (antisense kG*kA*kG*d[5mC]*dA*dA*d[5mC]*dA*d[5mC]*dA*dA*dG*d[5mC]*kA*kT*kA) [Compound 1075402],YAP1 (% UTC),[9],45 % UTC
1075179 (antisense kA*kA*kT*dT*dA*dG*d[5mC]*d[5mC]*dG*dG*dT*d[5mC]*d[5mC]*k[5mC]*kA*kG) [Compound 1075179],YAP1 (% UTC),"Table 25, Yap1 mRNA as percent of untreated control, 3-10-3 cEt gapmers targeting SEQ ID NO.: 1, and 2",107 % UTC
1075590 (k[5mC]*kA*kT*d[5mC]*dA*dA*dA*dA*dT*dT*dA*dG*d[5mC]*kA*kG*kG; antisense) [Compound 1075590],YAP1 (% UTC),[5],50 % UTC
1075142 (antisense kG*kA*kT*dA*dT*dA*d[5mC]*dG*dA*dG*dA*dA*dG*kT*kT*kG) [Compound 1075142],YAP1 (% UTC),[5],16 % UTC
1075241 (antisense kG*kA*kT*dA*dA*dT*dT*dA*d[5mC]*dT*dA*dA*d[5mC]*kT*kG*kA) [Compound 1075241],YAP1 (% UTC),[11],31 % UTC
1075817 (k[5mC]*k[5mC]*kT*dA*dA*dA*dG*dA*dA*dG*dT*d[5mC]*dT*kT*kG*kG; antisense) [Compound 1075817],YAP1 (% UTC),[11],100 % UTC
1074192 (antisense kG*kA*k[5mC]*dG*dG*d[5mC]*dG*dG*dG*d[5mC]*d[5mC]*d[5mC]*dT*kG*k[5mC]*k[5mC]) [compound 1074192],YAP1 (% UTC),[2],108 % UTC
716373 (k[5mC]*kA*kA*d[5mC]*dT*dG*d[5mC]*dA*dG*dA*dG*dA*dA*kG*k[5mC]*kT; antisense) [Compound 716373],YAP1 (% UTC),[1],69 % UTC
1074660 (antisense kA*kA*kT*dT*dT*d[5mC]*dA*dT*dT*dA*d[5mC]*dT*dA*k[5mC]*kT*k[5mC]) [Compound 1074660],YAP1 (% UTC),[7],48 % UTC
